Source: patent publication US20190276475A1, “CRYSTAL AND SALT OF NITROIMIDAZOLE, AND MANUFACTURING METHOD THEREOF” (priority 2016, published 2019)

Assays:
[1] = Stability test in different solvents for the crystal form A; conditions: stirred at 40° C. for 2 days
Experimental: The mixture was stirred at 40° C. for 2 days, and then centrifuged. The solid in all samples was collected, dried in a vacuum oven (40° C.) overnight, and was tested for crystal form by XRPD.

physchem [2] = conditions: 22 °C, pH 2, aqueous buffer, kinetic from dmso stock
Experimental: The test compound and the control compound (10 mM DMSO mother liquor, 10 μL per well) were added to a 96-well plate containing 490 μL buffer per well. After 2 minutes of vortexing, the sample plate were incubated for 24 hours at room temperature (22±2° C.) on a shaker. 200 μL sample was then transferred to a Multi Screen filter plate (polycarbonate membrane), filtered through a millipore vacuum manifold and the filtrate was collected. The concentration of the compound in the filtrate was determined by HPLC-UV. Three UV standard solution of different concentrations and the solubility test sample were injected successively. Each sample was inserted twice, and the concentration was calculated by standard curve line and averaged.

[3] = Solid stability test under high temperature and high humidity conditions
Text: The samples placed under different conditions were sampled and tested on the 5th day and 10th day, and the test results were compared with the initial test results of 0 days.

physchem [4] = conditions: thermodynamic from solid, Solubility (mg/mL)
Experimental: The solubility test was carried out by using a manual stepwise dilution method under normal temperature conditions while observing the dissolution. About 2 mg of the crystal form C of the compound represented by formula (I) was added into different vials used in the liquid phase, and then an organic solvent or solvent mixture was added in small portions to observe the dissolution of the compound.

[5] = tested on: Mycobacterium tuberculosis Erdman, ATCC 35801; assay: In vivo efficacy in mouse model of chronic infection; conditions: mice, whole lung, day 32 to 59 after infection, counted day 60
Vero Cell = assay: Vero cell cytotoxicity
MDR1-MDCK cells = assay: Bidirectional permeability in MDR1-MDCK cells; type: in vitro ADME; conditions: conclusion
Experimental: MDR1-MDCK cells permanently expressing human P-glycoprotein were inoculated in a 96-well Insert cell plate and cultured for 4-7 days to form convergent monolayer cells.
After the incubation, the sample solutions in the donor wells and receiver wells were immediately mixed with cold acetonitrile solution containing an internal standard. The amount of the intracellular accumulated compound was measured by lysing the cells with the cold acetonitrile solution containing an internal standard. The concentration of the test compound in all samples (including the starting dosing solution, the supernatant in the donor wells, the receiving solution, and the cell lysate) was analyzed by LC/MS/MS method. The concentration of the test compound was expressed by the ratio of the peak area of the compound to the peak area of the internal standard.
The standard conditions for the transport experiment of the compound represented by formula (I) were as follows:
Test concentration: 2 (DMSO≤1%);
Direction: bidirectional transport, including A→B and B→A these two directions;
Inoculated time: single time, 2.5 hours;
Buffer for transport: HBSS, pH 7.4;
Inoculated condition: 37° C., 5% CO2, 95% relative humidity.

M. tuberculosis H37R = assay: In vitro MIC against M. tuberculosis H37Rv, LORA; type: cell-based; conditions: Mycobacterium tuberculosis, read-out: M. tuberculosis H37R LORA (MIC) (μg/mL)
M. tuberculosis H37Rv = assay: In vitro MIC against M. tuberculosis H37Rv, MABA; type: cell-based
M. bovis ATCC35737 = type: cell-based
[6] = high temperature (60° C., open), 5th day
[7] = high temperature (60° C., open), 10th day

C[C@]1(CN2Cc3nc(-c4ccc(F)cc4)sc3C2)Cn2cc([N+](=O)[O-])nc2O1.O=S(=O)(O)c1ccccc1
Appearance (2 days) ([1]; acetonitrile-water (1:1)): suspension
Result (crystal form by XRPD) ([1]; acetonitrile-water (1:1)): crystal form A
Appearance (2 days) ([1]; acetonitrile): suspension
Result (crystal form by XRPD) ([1]; acetonitrile): crystal form A
Appearance (2 days) ([1]; ethanol-water (1:1)): suspension
Result (crystal form by XRPD) ([1]; ethanol-water (1:1)): crystal form A
Appearance (2 days) ([1]; ethanol): suspension
Result (crystal form by XRPD) ([1]; ethanol): crystal form A
Appearance (2 days) ([1]; ethyl acetate): suspension
Result (crystal form by XRPD) ([1]; ethyl acetate): crystal form A
Appearance (2 days) ([1]; isopropanol-water (1:1)): suspension
Result (crystal form by XRPD) ([1]; isopropanol-water (1:1)): crystal form A
Appearance (2 days) ([1]; isopropanol): suspension
Result (crystal form by XRPD) ([1]; isopropanol): crystal form A
solubility kinetic at 24 h (physchem [2]): 32.2 µM
Appearance ([3]; 0 day): grey powder
Total impurity (%) ([3]; 0 day): 1.32%
XRPD ([3]; 0 day): crystal
Appearance ([3]; […], open), 5th day): grey powder
Total impurity (%) ([3]; […], open), 5th day): 1.32%
XRPD ([3]; […], open), 5th day): crystal
Total impurity (%) ([3]; […], open), 10th day): 1.60%
XRPD ([3]; […], open), 10th day): crystal
Appearance [3, 6]: grey powder
Total impurity (%) [3, 6]: 1.49%
XRPD [3, 6]: crystal
Total impurity (%) [3, 7]: 1.86%
XRPD [3, 7]: crystal

C[C@]1(CN2Cc3nc(-c4ccc(F)cc4)sc3C2)Cn2cc([N+](=O)[O-])nc2O1
solubility (physchem [4]; aqueous with cosolvent or surfactant or cyclodextrin): < 2000 µg/mL
solubility (physchem [4]; water): < 2000 µg/mL

C[C@]1(COc2ccc(N3CCC(Oc4ccc(OC(F)(F)F)cc4)CC3)cc2)Cn2cc([N+](=O)[O-])nc2O1 [OPC-67683, Delamanid, reference compound]
Log value reduced ([5]; 100 mg/kg oral): 0.9
Number of colony ([5]; 100 mg/kg oral): 2.3E+05

CO[C@H]1/C=C/O[C@@]2(C)Oc3c(C)c(O)c4c(O)c(c(/C=N/N5CCN(C)CC5)c(O)c4c3C2=O)NC(=O)/C(C)=C\C=C\[C@H](C)[C@H](O)[C@@H](C)[C@@H](O)[C@@H](C)[C@H](OC(C)=O)[C@@H]1C [Rifampin, reference compound]
Log value reduced ([5]; 15 mg/kg oral): 2.2
Number of colony ([5]; 15 mg/kg oral): 1.2E+04

NC(=O)c1cnccn1 [pyrazinamide, reference compound]
Log value reduced ([5]; 150 mg/kg oral): 1.2
Number of colony ([5]; 150 mg/kg oral): 1.2E+05

C[C@]1(CN2Cc3nc(-c4ccc(F)cc4)sc3C2)Cn2cc([N+](=O)[O-])nc2O1 [the compound represented by formula (I)]
IC50 (Vero Cell; Chlorocebus sabaeus, Vero, read-out: Vero Cell (IC50) (μg/mL)): > 32 µg/mL
cytotoxicity (in words) (Vero Cell; conclusion): without cytotoxicity
permeability compared to the reference compound OPC-67683 (in words) (MDR1-MDCK cells): better permeability
MIC (M. tuberculosis H37R): 1 to 32 µg/mL
MIC (M. tuberculosis H37Rv; Mycobacterium tuberculosis, H37RV): < 1 µg/mL
inhibitory activity against M. tuberculosis H37Rv strain (in words) (M. tuberculosis H37Rv; conclusion): good inhibitory activity
M. bovis ATCC35737 (M. bovis ATCC35737; MIC, BCG strain, Alamar Blue): <1 µg/mL
inhibitory activity against M. bovis BCG strain (in words) (M. bovis ATCC35737; conclusion): good inhibitory activity

C[C@]1(CN2Cc3nc(-c4ccc(F)cc4)sc3C2)Cn2cc([N+](=O)[O-])nc2O1.O=S(=O)(O)c1ccccc1 [the compound represented by formula (II)]
Log value reduced ([5]; 10 mg/kg oral): 0.9
Number of colony ([5]; 10 mg/kg oral): 2.7E+05
Log value reduced ([5]; 30 mg/kg oral): 1.3
Number of colony ([5]; 30 mg/kg oral): 1.0E+05
Log value reduced ([5]; 100 mg/kg oral): 1.7
Number of colony ([5]; 100 mg/kg oral): 4.1E+04
